Laboratory results published in patent publication US20040116420A1 (priority 2001, published 2004).

Columns and labels:
[1] = molecular target: T1, HSV-1 protease (Human herpesvirus 1, UniProt P10210); assay: Enzymatic assay for HSV-1 protease (assembly) inhibitor, fluorescence polarization; type: biochemical; conditions: read-out: HSV-1 Enzyme inhibition IC50
T1 construct: 6xHis (N); made in house; host or cells: baculovirus expression system
In short: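 Fluorescence polarization read-out: after avidin stop, cleavage of a biotinylated DTAF-labelled release-site peptide by recombinant N-His6 HSV-1 protease was compared with no-inhibitor wells. Enzyme and compound were preincubated 30 min, then substrate reacted 60 min, all at room temperature, pH 7.4 citrate buffer with TCEP.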

[2] = tested on: HSV-1; assay: Antiviral activity, HSV-1 in Vero cells, plaque method; type: cell-based; conditions: Human alphaherpesvirus 1, 20 hours, 90% inhibition of plaque formation
In short: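 This is a virus-yield read-out. The culture medium was frozen at −80° C and thawed, and the plaques it formed were counted. It came from Vero monolayers infected with 50,000 pfu HSV-1 and then exposed to the compound for 20 h at 37° C. EC90 is the concentration inhibiting 90% of plaque formation relative to the untreated infected control.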

[3] = tested on: Vero cells; assay: Cytotoxicity, Vero cells, Alamar Blue; type: cell-based; conditions: 25 μM, 20 hours
In short: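 Living-cell ratio versus untreated control was read by Alamar Blue absorbance after about 6 h of dye incubation. Before that, Vero cells had received 25 μM test compound in 2% FBS-DMEM for 20 hours at 37 °C under 5% CO2.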

T1 sequence (P10210 1-247): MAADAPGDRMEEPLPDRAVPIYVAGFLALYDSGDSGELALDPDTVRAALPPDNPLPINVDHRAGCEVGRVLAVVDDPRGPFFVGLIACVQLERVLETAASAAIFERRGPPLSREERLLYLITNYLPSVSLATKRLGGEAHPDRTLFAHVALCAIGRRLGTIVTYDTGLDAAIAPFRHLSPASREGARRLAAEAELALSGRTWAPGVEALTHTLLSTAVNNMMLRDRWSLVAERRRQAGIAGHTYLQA

Row | SMILES | IC50 [1] [µM] | EC90 [2] [µM] | Cell viability (% of control) [3] [%]
1 | Cc1c(NC(=O)C2CCC2)ccc2nc(NC(C)(C)C(=O)N(C)CCc3ccccn3)oc(=O)c12 [Compound No.198, Cyclobutanecarboxylic acid (5-methyl-2-{1-methyl-1-[methyl-(2-pyridin-2-yl-ethyl)-carbamoyl]-ethylamino}-4-oxo-4H-benzo[d][1,3]oxazin-6-yl)-amide] | 3.6 | ≥ 12.5 | 99.2
2 | Cc1c(NC(=O)OC(C)(C)C)ccc2nc(N3CCC[C@H]3C(=O)N(C)CCc3ccncc3)oc(=O)c12 [Compound No.93, (5-Methyl-2-{2S-[methyl-(2-pyridin-4-yl-ethyl)-carbamoyl]-pyrrolidin-1-yl}-4-oxo-4H-benzo[d][1,3]oxazin-6-yl)-carbamic acid tert-butyl ester] | > 20 | > 12.5 | 82.4
3 | Cc1ccccc1C(=O)Nc1ccc2nc(NC(C)(C)C(=O)N(C)CCc3ccccn3)oc(=O)c2c1C [Compound No.156, 2-Methyl-N-(5-methyl-2-{1-methyl-1-[methyl-(2-pyridin-2-yl-ethyl)-carbamoyl]-ethylamino}-4-oxo-4H-benzo[d][1,3]oxazin-6-yl)-benzamide] | 3.8 | > 12.5 | 78.0
4 | Cc1c(NC(=O)c2ccccc2I)ccc2nc(NC(C)(C)C(=O)N(C)CCc3ccccn3)oc(=O)c12 [Compound No.155, 2-Iodo-N-(5-methyl-2-{1-methyl-1-[methyl-(2-pyridin-2-yl-ethyl)-carbamoyl]-ethylamino}-4-oxo-4H-benzo[d][1,3]oxazin-6-yl)-benzamide] | 1.5 | > 12.5 | 69.1
5 | Cc1c(NC(=O)OC(C)(C)C)ccc2nc(N[C@H](C(=O)NCc3cccnc3)C(C)C)oc(=O)c12 [Compound No.24, (5-Methyl-2-{2-methyl-1S-[(pyridin-3-ylmethyl)-carbamoyl]-propylamino}-4-oxo-4H-benzo[d][1,3]oxazin-6-yl)-carbamic acid tert-butyl ester] | > 20 | > 25 | 99.5
6 | Cc1c(NC(=O)C=Cc2ccccc2)ccc2nc(NC(C)(C)C(=O)N(C)CCc3ccccn3)oc(=O)c12 [Compound No.159, N-(5-Methyl-2-{1-methyl-1-[methyl-(2-pyridin-2-yl-ethyl)-carbamoyl]-ethylamino}-4-oxo-4H-benzo[d][1,3]oxazin-6-yl)-3-phenyl-acrylamide] | 1.4 | 10.8 | 15.9
7 | Cc1c(NC(=O)c2ccccc2Br)ccc2nc(NC(C)(C)C(=O)N(C)CCc3ccccn3)oc(=O)c12 [compound 199, 2-Bromo-N-(5-methyl-2-{1-methyl-1-[methyl-(2-pyridin-2-yl-ethyl)-carbamoyl]-ethylamino}-4-oxo-4H-benzo[d][1,3]oxazin-6-yl)-benzamide] | 3 | 4.1 | 56.9
8 | Cc1c(NC(=O)OC(C)(C)C)ccc2nc(N(C)[C@@H](Cc3ccccc3)C(=O)NCc3cccnc3)oc(=O)c12 [Compound No.79, [5-Methyl-2-(methyl-{2-phenyl-1S-[(pyridin-3-ylmethyl)-carbamoyl]-ethyl}-amino)-4-oxo-4H-benzo[d][1,3]oxazin-6-yl]-carbamic acid tert-butyl ester] | 1 | 6 | 38.5
9 | Cc1c(NC(=O)OC(C)(C)C)ccc2nc(N(C)[C@@H](C)C(=O)NCc3ccccn3)oc(=O)c12 [Compound No.71, [5-Methyl-2-(methyl-{1S-[(pyridin-2-ylmethyl)-carbamoyl]-ethyl}-amino)-4-oxo-4H-benzo[d][1,3]oxazin-6-yl]-carbamic acid tert-butyl ester] | 0.8 | > 12.5 | 107.0
10 | Cc1c(NC(=O)OC(C)(C)C)ccc2nc(N[C@@H](CC(C)C)C(=O)NCc3ccccn3)oc(=O)c12 [Compound No.36, (5-Methyl-2-{3-methyl-1S-[(pyridin-2-ylmethyl)-carbamoyl]-butylamino}-4-oxo-4H-benzo[d][1,3]oxazin-6-yl)-carbamic acid tert-butyl ester] | 5.8 | 21.5 | 110.0
11 | Cc1c(NC(=O)c2ccc(-c3ccccc3)cc2)ccc2nc(NC(C)(C)C(=O)N(C)CCc3ccccn3)oc(=O)c12 [Compound No.169, Biphenylyl-4-carboxylic acid (5-methyl-2-{1-methyl-1-[methyl-(2-pyridin-2-yl-ethyl)-carbamoyl]-ethylamino}-4-oxo-4H-benzo[d][1,3]oxazin-6-yl)-amide] | 1 | 5.7 | 7.0
12 | Cc1c(NC(=O)OC(C)(C)C)ccc2nc(N[C@H](C(=O)NCc3cccnc3)C(C)(C)C)oc(=O)c12 [Compound No.33, (2-{2,2-dimethyl-1S-[(pyridin-3-ylmethyl)-carbamoyl]-propylamino}-5-methyl-4-oxo-4H-benzo[d][1,3]oxazin-6-yl)-carbamic acid tert-butyl ester] | 10.1 | 13 | 105.0

The next lines start with results.

Row | IC50 [1] [µM] | EC90 [2] [µM] | SMILES | Cell viability (% of control) [3] [%]
13 | 1.9 | > 12.5 | Cc1cc(C(=O)Nc2ccc3nc(NC(C)(C)C(=O)N(C)CCc4ccccn4)oc(=O)c3c2C)c(C)o1 [Compound No.176, 2,5-Dimethyl-furan-3-carboxylic acid (5-methyl-2-{1-methyl-1-[methyl-(2-pyridin-2-yl-ethyl)-carbamoyl]-ethylamino}-4-oxo-4H-benzo[d][1,3]oxazin-6-yl)-amide] | 93.3
14 | 1.4 | 6.1 | COC(=O)c1ccc(C(=O)Nc2ccc3nc(NC(C)(C)C(=O)N(C)CCc4ccccn4)oc(=O)c3c2C)cc1 [Compound No.150, N-(5-Methyl-2-{1-methyl-1-[methyl-(2-pyridin-2-yl-ethyl)-carbamoyl]-ethylamino}-4-oxo-4H-benzo[d][1,3]oxazin-6-yl)-tetraphthalic acid methyl ester] | 81.5
15 | 1.5 | 10.8 | Cc1c(NC(=O)OC(C)(C)C)ccc2nc(N(C)[C@@H](Cc3ccccc3)C(=O)N(C)Cc3ccccn3)oc(=O)c12 [Compound No.82, (5-Methyl-2-{methyl-[1S-(methyl-pyridin-2-ylmethyl-carbamoyl)-2-phenyl-ethyl]-amino}-4-oxo-4H-benzo[d][1,3]oxazin-6-yl)-carbamic acid tert-butyl ester] | 61.6
16 | 1 | 6.6 | Cc1c(NC(=O)c2sccc2Cl)ccc2nc(NC(C)(C)C(=O)N(C)CCc3ccccn3)oc(=O)c12 [Compound No.179, 3-Chloro-thiophene-2-carboxylic acid (5-methyl-2-{1-methyl-1-[methyl-(2-pyridin-2-yl-ethyl)-carbamoyl]-ethylamino}-4-oxo-4H-benzo[d][1,3]oxazin-6-yl)-amide] | 61.7
17 | 19.6 | 21.5 | Cc1c(NC(=O)OC(C)(C)C)ccc2nc(N[C@H](C(=O)NCc3ccccn3)C(C)(C)C)oc(=O)c12 [Compound No.32, (2-{2,2-dimethyl-1S-[(pyridin-2-ylmethyl)-carbamoyl]-propylamino}-5-methyl-4-oxo-4H-benzo[d][1,3]oxazin-6-yl)-carbamic acid tert-butyl ester] | 111.0
